Test results from ChEMBL document CHEMBL3045778, “Production of bacillomycin- and macrolactin-type antibiotics by Bacillus amyloliquefaciens NJN-6 for suppressing soilborne plant pathogens” (2012).

What was measured:
Ralstonia solanacearum = experiment: Antibacterial activity against Ralstonia solanacearum race 1 assessed as growth inhibition at 50 uL at 28 degC for 3 days; format: functional
[1] = tested on: Fusarium oxysporum f. sp. cubense; experiment: Antifungal activity against soil-borne Fusarium oxysporum f. sp. cubense race 4 assessed as growth inhibition at 50 uL at 28 degC for 4 days; format: functional

| SMILES | diameter of the inhibition zone (DIZ) (Ralstonia solanacearum) [cm] | diameter of the inhibition zone (DIZ) [1] [cm] |
| --- | --- | --- |
| C[C@@H]1CCC/C=C/C=C/[C@H](O)C[C@@H](O)C/C=C\C=C\[C@@H](OC(=O)CC(=O)O)C/C=C/C=C\C(=O)O1 [7-O-MALONYL MACROLACTIN A] | 1 |  |
| C[C@@H]1CCC/C=C/C=C/[C@H](O)C[C@@H](O)C/C=C\C=C\[C@@H](OC(=O)CCC(=O)O)C/C=C/C=C\C(=O)O1 [7-O-SUCCINYL MACROLACTIN A] | 1.3 |  |
| CCC(C)CCCCCCCCC1CC(=O)N[C@@H](CC(=O)O)C(=O)N[C@H](Cc2ccc(O)cc2)C(=O)N[C@H](CC(N)=O)C(=O)N2CCC[C@H]2C(=O)N[C@@H](CCC(=O)O)C(=O)N[C@H](CO)C(=O)N[C@@H]([C@@H](C)O)C(=O)N1 (stereo not given in full) [BACILLOMYCIN D(C15)] |  | 0.7 |
| C[C@@H]1CCC/C=C/C=C/[C@H](O)C[C@@H](O)C/C=C\C=C\[C@@H](O)C/C=C/C=C\C(=O)O1 [MACROLACTIN A] | 1.2 |  |
| CC(C)CCCCCCCCC1CC(=O)N[C@@H](CC(=O)O)C(=O)N[C@H](Cc2ccc(O)cc2)C(=O)N[C@H](CC(N)=O)C(=O)N2CCC[C@H]2C(=O)N[C@@H](CCC(=O)O)C(=O)N[C@H](CO)C(=O)N[C@@H]([C@@H](C)O)C(=O)N1 (stereo not given in full) [BACILLOMYCIN D(C14)] |  | 0.6 |
